Laboratory results taken from US20260297080A1, “BICYCLIC COMPOUNDS AS CDK INHIBITORS” (BeOne Medicines I GmbH, priority 2022, published 2026).

Key:
CDK1/Cyclin B1 = CDK1/Cyclin B1 (Homo sapiens, UniProt P06493); assay: CDK1/Cyclin B1 Biochemical Assay (TR-FRET), 0.015 mM ATP; details: 0.15 μM Rb (Ser780)-biotin substrate, pH7.0, 60 min preincubation, 120 min reaction, room temperature
Method: (§1) CDK2/Cyclin E1 and CDK1/Cyclin B1 Biochemical Assays
(§2) Compounds disclosed herein were tested for inhibition of CDK2/Cyclin E1 or CDK1/Cyclin B1 kinase in an assay based on the time-resolved fluorescence-resonance energy transfer (TR-FRET) methodology. The assay was carried out in 384-well low volume black plates in a reaction mixture containing CDK2/Cyclin E1 or CDK1/Cyclin B1, 0.060 mM ATP for CDK2/Cyclin E1 or 0.015 mM ATP for CDK1/Cyclin B1, 0.15 μM Rb (Ser780)-biotin substrate and 0-10 μM compound in buffer containing 50 mM HEPES pH7.0, 0.02% NaN3, 0.01% BSA, 0.1 mM Orthovanadate, 50 mM MgCl2, 1 mM DTT and 0.005% Tween-20. The kinase was incubated with compound for 60 minutes at room temperature and the reaction was initiated by the addition of ATP and Rb (Ser780)-biotin substrate. After reaction at room temperature for 120 minutes, an equal volume of stop/detection solution was added according to the manufacture's instruction (Cisbio Bioassays). The stop/detection solution contained Streptavidin-XL665 and Anti-pRb (Ser780) mAb-Eu Cryptate in Detection buffer (Cisbio Bioassays). Plates were incubated at room temperature for 60 minutes, and the TR-FRET signals (ex337 nm, em665 nm/620 nm) were recorded on a PHERAstar FSX plate reader (BMG Labtech). The inhibition percentage of CDK2/Cyclin E1 or CDK1/Cyclin B1 kinase activity in presence of increasing concentrations of compounds was calculated based on the ratio of fluorescence at 665 nm to that at 620 nm. The IC50 for each compound was derived from fitting the data to the four-parameter logistic equation by Dotmatics.

CDK2/Cyclin E1 = CDK2/Cyclin E1 (Homo sapiens, UniProt P24941); assay: CDK2/Cyclin E1 Biochemical Assay (TR-FRET), 0.060 mM ATP; details: 0.15 μM Rb (Ser780)-biotin substrate, pH7.0, 60 min preincubation, 120 min reaction, room temperature
Method: as §1, §2

Sequence of CDK1/Cyclin B1 (P06493 whole entry): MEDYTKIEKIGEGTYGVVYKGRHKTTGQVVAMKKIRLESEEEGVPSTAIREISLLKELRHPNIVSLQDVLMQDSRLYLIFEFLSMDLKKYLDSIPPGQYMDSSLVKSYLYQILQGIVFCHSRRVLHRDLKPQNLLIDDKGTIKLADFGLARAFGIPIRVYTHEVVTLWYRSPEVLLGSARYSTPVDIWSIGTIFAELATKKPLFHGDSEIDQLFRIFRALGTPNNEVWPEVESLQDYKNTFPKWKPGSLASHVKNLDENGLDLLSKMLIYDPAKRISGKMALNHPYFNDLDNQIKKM
Sequence of CDK1/Cyclin B1 (P14635 whole entry partner): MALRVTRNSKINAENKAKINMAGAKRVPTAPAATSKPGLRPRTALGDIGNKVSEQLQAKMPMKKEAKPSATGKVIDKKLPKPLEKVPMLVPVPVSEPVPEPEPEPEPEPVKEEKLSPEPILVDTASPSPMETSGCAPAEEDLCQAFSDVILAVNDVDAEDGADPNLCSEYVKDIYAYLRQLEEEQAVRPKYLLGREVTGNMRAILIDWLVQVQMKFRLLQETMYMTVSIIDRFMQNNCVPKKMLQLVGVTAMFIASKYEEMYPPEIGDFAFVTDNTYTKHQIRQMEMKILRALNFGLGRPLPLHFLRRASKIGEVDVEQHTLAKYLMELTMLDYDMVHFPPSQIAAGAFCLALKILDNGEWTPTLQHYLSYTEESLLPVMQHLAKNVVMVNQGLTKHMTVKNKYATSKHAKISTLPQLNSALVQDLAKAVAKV

Structure (SMILES) | IC50 (CDK1/Cyclin B1) | IC50 (CDK2/Cyclin E1)
CC1(NC(=O)O[C@H]2CC[C@@H](c3cc(Nc4ccc5c(c4F)CN(CCO)S5(=O)=O)n[nH]3)C2)CC1 (single isomer, unassigned) [Example 128a, cis-3-(3-((4-fluoro-2-(2-hydroxyethyl)-1,1-dioxido-2,3-dihydrobenzo[d]isothiazol-5-yl)amino)-1H-pyrazol-5-yl)cyclopentyl(1-methylcyclopropyl)carbamate] | 192 nM | 2.7 nM
CCCNC(=O)O[C@H]1CC[C@@H](c2cc(Nc3cc4c(cc3F)S(=O)(=O)NC4)n[nH]2)C1 (single isomer, unassigned) [Example 42a, cis-3-(3-((6-fluoro-1,1-dioxido-2,3-dihydrobenzo[d]isothiazol-5-yl)amino)-1H-pyrazol-5-yl)cyclopentyl propylcarbamate] | 891 nM | 14 nM
CC[C@H](C)NC(=O)O[C@H]1CC[C@@H](c2cc(Nc3ccc4c(c3F)CS(=O)(=O)N4C)n[nH]2)C1 (relative stereo) [Example 258, cis-3-(3-((4-fluoro-1-methyl-2,2-dioxido-1,3-dihydrobenzo[c]isothiazol-5-yl)amino)-1H-pyrazol-5-yl)cyclopentyl((S)-sec-butyl)carbamate] | 37 nM | 1.5 nM
CC(C)NC(=O)O[C@H]1CC[C@@H](c2cc(Nc3ccc4c(c3)S(=O)(=O)NC4C)[nH]n2)C1 (single isomer, unassigned) [Example 5d, cis-3-(5-((3-methyl-1,1-dioxido-2,3-dihydrobenzo[d]isothiazol-6-yl)amino)-1H-pyrazol-3-yl)cyclopentyl isopropylcarbamate] | 45 nM | 2.9 nM
CC(C)NC(=O)O[C@H]1CC[C@@H](c2cc(Nc3ccc4c(c3F)CS(=O)(=O)N4CCO)n[nH]2)C1 (single isomer, unassigned) [Example 271a, cis-3-(3-((4-fluoro-1-(2-hydroxyethyl)-2,2-dioxido-1,3-dihydrobenzo[c]isothiazol-5-yl)amino)-1H-pyrazol-5-yl)cyclopentyl isopropylcarbamate] | 172 nM | 3.2 nM
Cc1c(Nc2cc([C@@H]3CC[C@H](OC(=O)NC(C)C)C3)[nH]n2)ccc2c1S(=O)(=O)NC2 (relative stereo) [Example 353, cis-3-(3-((7-methyl-1,1-dioxido-2,3-dihydrobenzo[d]isothiazol-6-yl)amino)-1H-pyrazol-5-yl)cyclopentyl isopropylcarbamate] | 93 nM | 2.4 nM
CC(C)NC(=O)O[C@H]1CC[C@@H](c2cc(Nc3ccc4c(c3)CS(=O)(=O)N4)n[nH]2)C1 (single isomer, unassigned) [Example 7b] | 17 nM | 0.9 nM
O=C(O[C@H]1CC[C@@H](c2cc(Nc3ccc4c(c3F)CS(=O)(=O)N4)n[nH]2)C1)N1CCOCC1 (relative stereo) [Example 415, cis-3-(3-((4-fluoro-2,2-dioxido-1,3-dihydrobenzo[c]isothiazol-5-yl)amino)-1H-pyrazol-5-yl)cyclopentyl morpholine-4-carboxylate] | 700 nM | 26 nM
CN1c2ccc(Nc3cc([C@@H]4CC[C@H](OC(=O)NCC(C)(C)O)C4)[nH]n3)cc2CS1(=O)=O (relative stereo) [Example 238, cis-3-(3-((1-methyl-2,2-dioxido-1,3-dihydrobenzo[c]isothiazol-5-yl)amino)-1H-pyrazol-5-yl)cyclopentyl(2-hydroxy-2-methylpropyl)carbamate] | 153 nM | 16 nM
CCCNC(=O)O[C@H]1CC[C@@H](c2cc(Nc3ccc4c(c3F)CS(=O)(=O)N4C)n[nH]2)C1 (single isomer, unassigned) [Example 256a, cis-3-(3-((4-fluoro-1-methyl-2,2-dioxido-1,3-dihydrobenzo[c]isothiazol-5-yl)amino)-1H-pyrazol-5-yl)cyclopentyl propylcarbamate] | 334 nM | 5.3 nM
CC(C)NC(=O)O[C@H]1CC[C@@H](c2cc(Nc3ccc4c(c3F)CS(=O)(=O)N4CCCO)n[nH]2)C1 (relative stereo) [Example 389, cis-3-(3-((4-fluoro-1-(3-hydroxypropyl)-2,2-dioxido-1,3-dihydrobenzo[c]isothiazol-5-yl)amino)-1H-pyrazol-5-yl)cyclopentyl isopropylcarbamate] | 74 nM | 1.3 nM
COc1c(Nc2cc([C@@H]3CC[C@H](OC(=O)NC(C)C)C3)[nH]n2)ccc2c1S(=O)(=O)NC2(C)C (relative stereo) [Example 181, cis-3-(3-((7-methoxy-3,3-dimethyl-1,1-dioxido-2,3-dihydrobenzo[d]isothiazol-6-yl)amino)-1H-pyrazol-5-yl)cyclopentyl isopropylcarbamate] | 1250 nM | 58 nM
COCCN1Cc2c(ccc(Nc3cc([C@@H]4CC[C@H](OC(=O)NC(C)C)C4)[nH]n3)c2F)S1(=O)=O (relative stereo) [Example 64, cis-3-(3-((4-fluoro-2-(2-methoxyethyl)-1,1-dioxido-2,3-dihydrobenzo[d]isothiazol-5-yl)amino)-1H-pyrazol-5-yl)cyclopentyl isopropylcarbamate] | 214 nM | 4.6 nM
CCCNC(=O)O[C@H]1CC[C@@H](c2cc(Nc3ccc4c(c3)CS(=O)(=O)N4)n[nH]2)C1 (single isomer, unassigned) [Example 195a, cis-3-(3-((2,2-dioxido-1,3-dihydrobenzo[c]isothiazol-5-yl)amino)-1H-pyrazol-5-yl)cyclopentyl propylcarbamate] | 73 nM | 12 nM
CC(CC(F)(F)F)NC(=O)O[C@H]1CC[C@@H](c2cc(Nc3ccc4c(c3)CS(=O)(=O)N4C)n[nH]2)C1 (relative stereo) [Example 229, cis-3-(3-((1-methyl-2,2-dioxido-1,3-dihydrobenzo[c]isothiazol-5-yl)amino)-1H-pyrazol-5-yl)cyclopentyl(4,4,4-trifluorobutan-2-yl)carbamate] | 30 nM | 6.4 nM
CCCNC(=O)O[C@H]1CC[C@@H](c2cc(Nc3ccc4c(c3F)CN(C3CC3)S4(=O)=O)n[nH]2)C1 (racemic) [Example 118, cis-3-(3-((2-cyclopropyl-4-fluoro-1,1-dioxido-2,3-dihydrobenzo[d]isothiazol-5-yl)amino)-1H-pyrazol-5-yl)cyclopentyl propylcarbamate] | 345 nM | 3.1 nM
CC(C)NC(=O)O[C@H]1CC[C@@H](c2cc(Nc3cc(F)c4c(c3)S(=O)(=O)NC4)n[nH]2)C1 (relative stereo) [Example 179, cis-3-(3-((4-fluoro-1,1-dioxido-2,3-dihydrobenzo[d]isothiazol-6-yl)amino)-1H-pyrazol-5-yl)cyclopentyl isopropylcarbamate] | 5.5 nM | 0.3 nM
CC(C)NC(=O)O[C@H]1CC[C@@H](c2cc(Nc3ccc4c(c3F)CN(C)S4(=O)=O)n[nH]2)C1 (single isomer, unassigned) [Example 121b, cis-3-(3-((4-fluoro-2-methyl-1,1-dioxido-2,3-dihydrobenzo[d]isothiazol-5-yl)amino)-1H-pyrazol-5-yl)cyclopentyl isopropylcarbamate] | 130 nM | 3.3 nM
CN1c2ccc(Nc3cc([C@@H]4CC[C@H](OC(=O)NC5(C)COC5)C4)[nH]n3)cc2CS1(=O)=O (relative stereo) [Example 234, cis-3-(3-((1-methyl-2,2-dioxido-1,3-dihydrobenzo[c]isothiazol-5-yl)amino)-1H-pyrazol-5-yl)cyclopentyl(3-methyloxetan-3-yl)carbamate] | 67 nM | 4.2 nM
[2H]C([2H])([2H])N1c2c(F)cc(Nc3cc([C@@H]4CC[C@H](OC(=O)NC(C)C)C4)[nH]n3)cc2CS1(=O)=O (single isomer, unassigned) [Example 289b, cis-3-(3-((7-fluoro-1-(methyl-d3)-2,2-dioxido-1,3-dihydrobenzo[c]isothiazol-5-yl)amino)-1H-pyrazol-5-yl)cyclopentyl isopropylcarbamate] | 116 nM | 12 nM
CC1(NC(=O)O[C@H]2CC[C@@H](c3cc(Nc4ccc5c(c4F)CN(CCO)S5(=O)=O)n[nH]3)C2)CC1 (single isomer, unassigned) [Example 128b, cis-3-(3-((4-fluoro-2-(2-hydroxyethyl)-1,1-dioxido-2,3-dihydrobenzo[d]isothiazol-5-yl)amino)-1H-pyrazol-5-yl)cyclopentyl(1-methylcyclopropyl)carbamate] | 96 nM | 2.5 nM
CC(C)NC(=O)O[C@H]1CC[C@@H](c2cc(Nc3ccc4c(c3F)CS(=O)(=O)C4)n[nH]2)C1 (relative stereo) [Example 317, cis-3-(3-((4-fluoro-2,2-dioxido-1,3-dihydrobenzo[c]thiophen-5-yl)amino)-1H-pyrazol-5-yl)cyclopentyl isopropylcarbamate] | 18 nM | –
